One series deals with HEK-293. As to the kind of experiment: CellTiter-Blue cell viability assay. It counts as cell-based, human. As to conditions: 30 µM compound; 24 h incubation; HEK-293 wild-type. The method, then:
To assess hit compound toxicity, CellTiter-Blue Cell Viability Assay (Promega, Southampton, United Kingdom) was used as recommended by the manufacturer on not transfected HEK-293. Cells were seeded in 96-well plates (100 μL at a concentration of 30–35,000 cells/ml) in culture media and a day later media was replaced with 100 µL fresh media containing 30 µM of tested compounds (10 µM of A740003). After 24 h incubation at 37 °C, 5% CO2, 20 µL of CellTiter Blue reagent was added to each well and incubated for 3 h at 37°C. Fluorescence was then measured with a BMG Clariostar using excitation/emission wavelengths of 560/590 nm. Data were normalized to vehicle control-treated cells (.1% DMSO).
(The colour change of resazurin is a common sign of viable cells or microbes.)

A further series addresses T1, rat P2X7-GFP (Rattus norvegicus, UniProt Q64663).
T1 construct: expressed in transfected cells; host or cells: HEK-293 cells stably expressing rat P2X7-GFP (patch clamp)
T1 sequence (Q64663 1-595): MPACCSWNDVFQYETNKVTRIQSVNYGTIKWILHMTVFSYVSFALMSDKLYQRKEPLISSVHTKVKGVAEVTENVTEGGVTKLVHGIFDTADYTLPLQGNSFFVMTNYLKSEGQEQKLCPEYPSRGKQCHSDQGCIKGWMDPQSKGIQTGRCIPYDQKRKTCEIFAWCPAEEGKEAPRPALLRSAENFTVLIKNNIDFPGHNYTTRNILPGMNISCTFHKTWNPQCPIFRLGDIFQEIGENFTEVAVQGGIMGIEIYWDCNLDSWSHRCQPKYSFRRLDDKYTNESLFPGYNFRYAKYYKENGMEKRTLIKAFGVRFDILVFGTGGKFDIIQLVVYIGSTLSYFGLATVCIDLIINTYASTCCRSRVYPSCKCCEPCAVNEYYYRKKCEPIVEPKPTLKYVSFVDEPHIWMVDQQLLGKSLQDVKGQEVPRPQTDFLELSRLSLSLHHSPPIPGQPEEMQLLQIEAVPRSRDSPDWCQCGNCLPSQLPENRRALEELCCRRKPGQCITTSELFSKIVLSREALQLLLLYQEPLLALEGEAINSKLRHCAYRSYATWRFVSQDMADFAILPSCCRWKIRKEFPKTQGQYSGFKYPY
As to the kind of experiment: Whole-cell patch clamp electrophysiology. It counts as cell-based. The method, then: Whole-cell patch-clamp traces were recorded at room temperature using patch pipettes pulled from borosilicate glass (World Precision Instruments, Sarasota, FL, United States). Pipettes were filled with internal solution (IS) containing (in mM): 145 NaCl, 10 EGTA and 10 HEPES, with the pH adjusted to 7.3 with NaOH and had resistances of 3–5 MΩ. Cells were constantly perfused in a bath with ECS-LD. Currents were recorded at a holding membrane potential of −60 mV using an Axon Instruments Axopatch Multiclamp 700A amplifier and Digidata 1322A A/D interface (Molecular Devices, Sunnyvale, CA, United States). […] ATP applications were made at 90-s intervals. Solutions were applied to patch-clamped cells with the help of a rapid perfusion system (RSC-160, Biologic, Claix, France), allowing solution exchange times in the range […].
In order to confirm GP-25 as a competitive (orthosteric) antagonist, BzATP concentration-response curves (ranging between 300 μM and .03 µM) were constructed for rat P2X7-GFP in the YoPro-1 uptake assay in the presence of increasing concentrations of GP-25 (Figure 3A).
Background: Patch clamp records ionic current or voltage across a cell membrane.

A short description of a further series: Solubility observations. The series is classed as physicochemical. As to conditions: read-out: maximum concentration that could be applied (due to solubility issues).

≈ marks a conversion by molar mass, not a printed value.

Data on one molecule can be found in paper PMC9877316, “Identification of a novel P2X7 antagonist using structure-based virtual screening” (Frontiers in Pharmacology, 2023).

For `COC(=O)C1=C(C)NC2=C(C(=O)c3ccccc32)C1c1cc(Br)ccc1OCC(=O)O` (stereo not shown) [Compound 9, (4-bromo-2-(3-(methoxycarbonyl)-2-methyl-5-oxo-4,5-dihydro-1H-indeno(1,2-b)pyridine-4-yl)phenoxy)acetic acid], the cell viability result with HEK-293 was “did not significantly reduce cell viability”. Besides, on rat P2X7-GFP (25 µM compound, patch clamp), the “reduction in P2X7 activity at 25 µM” value was “statistically significant reduction”. In addition, at rat P2X7-GFP (GP-25 pre-applied for 2 min, 300 µM ATP, HEK-293 cells), the “inhibition of ATP-evoked currents” value is “concentration-dependent inhibition”. Further, in “Solubility observations”, the solubility is 100 µM (≈ 48.4 µg/mL).
